This passage reports IC50 results from patent US20030096958A1, “Human NHE2” (Pfizer Inc., priority 2001, published 2003).

Where two headings read alike, the source gives them in different places.

In one assay the target is T1, human NHE2-LF (Homo sapiens, UniProt Q9UBY0).
T1 construct: expressed in transfected cells
T1 sequence (Q9UBY0 1-812): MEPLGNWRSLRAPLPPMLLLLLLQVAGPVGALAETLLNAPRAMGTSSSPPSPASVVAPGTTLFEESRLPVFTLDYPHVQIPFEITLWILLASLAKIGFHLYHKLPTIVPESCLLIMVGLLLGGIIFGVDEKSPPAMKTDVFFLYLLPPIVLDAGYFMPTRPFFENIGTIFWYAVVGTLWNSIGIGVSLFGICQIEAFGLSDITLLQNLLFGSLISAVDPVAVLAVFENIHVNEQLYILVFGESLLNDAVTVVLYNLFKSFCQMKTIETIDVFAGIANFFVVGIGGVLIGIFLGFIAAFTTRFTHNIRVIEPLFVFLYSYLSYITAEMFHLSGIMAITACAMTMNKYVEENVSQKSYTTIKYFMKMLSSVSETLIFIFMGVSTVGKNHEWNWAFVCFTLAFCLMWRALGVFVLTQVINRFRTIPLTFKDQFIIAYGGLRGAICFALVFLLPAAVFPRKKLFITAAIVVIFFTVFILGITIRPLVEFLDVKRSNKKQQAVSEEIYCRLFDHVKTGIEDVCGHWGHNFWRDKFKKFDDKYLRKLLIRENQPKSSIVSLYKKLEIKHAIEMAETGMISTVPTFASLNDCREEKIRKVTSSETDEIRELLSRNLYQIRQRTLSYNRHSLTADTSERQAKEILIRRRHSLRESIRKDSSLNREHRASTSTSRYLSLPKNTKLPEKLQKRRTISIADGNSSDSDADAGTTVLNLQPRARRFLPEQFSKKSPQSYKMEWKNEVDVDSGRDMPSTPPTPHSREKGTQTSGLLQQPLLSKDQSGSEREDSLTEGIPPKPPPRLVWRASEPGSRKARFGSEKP
Nature of the assay: FLIPR assay of Na+/H+ exchange (BCECF fluorescence recovery) in human NHE2-LF transfected PS120 cells. The note with it: read-out: IC50 Values Determined By FLIPR, NHE2-LF. The class given is cell-based. As for the experimental part: (§1) Human NHE2-LF and human NHE2-SF transfected PS120 cells were grown to confluence in collagen coated Fluorescent Laser Imaging Plate Reader (FLIPR) plates. To remove growth medium, the cells were washed with a 10 mM Hepes buffer, pH 7.4. A pH sensitive fluorescent dye, BCECF, AM (5 μM) (Molecular Probes, Eugene, Oreg.), was added to each well and the plates were incubated in a 37° C. humidified 5% CO2 incubator for approximately 20 minutes.
(§2) The cells were then washed with 30 mM NH4Cl buffer, pH 7.5, to remove excess dye. Plates were incubated with this buffer for approximately 45 minutes in a 37° C. humidified incubator.
5-(N,N-Hexamethylene)-amiloride ((hexa)-amiloride), amiloride, or a vehicle, was then added to each well and allowed to incubate for a minimum of 5 minutes prior to the initiation of intracellular acidification. The NH4Cl buffer was removed and the plates were placed on the FLIPR to establish a baseline fluorescence. […] (This process initiates intracellular acidification and the quenching of BCECF-related fluorescence. The resultant activation of the Na^+/H^+ exchanger and the decrease in intracellular H^+ ions produces in gradual increase in dye fluorescence towards baseline.) Changes in fluorescence were measured by the FLIPR over a period of 7 min. […]

The next assay concerns the target T2, human NHE2-SF (Homo sapiens, UniProt Q9UBY0).
T2 construct: NotI/BgIII fragments including each of the entire coding regions were subcloned into pcDNA3.1(−) vectors; expressed in transfected cells; two lines tested
T2 sequence (Q9UBY0 116-812): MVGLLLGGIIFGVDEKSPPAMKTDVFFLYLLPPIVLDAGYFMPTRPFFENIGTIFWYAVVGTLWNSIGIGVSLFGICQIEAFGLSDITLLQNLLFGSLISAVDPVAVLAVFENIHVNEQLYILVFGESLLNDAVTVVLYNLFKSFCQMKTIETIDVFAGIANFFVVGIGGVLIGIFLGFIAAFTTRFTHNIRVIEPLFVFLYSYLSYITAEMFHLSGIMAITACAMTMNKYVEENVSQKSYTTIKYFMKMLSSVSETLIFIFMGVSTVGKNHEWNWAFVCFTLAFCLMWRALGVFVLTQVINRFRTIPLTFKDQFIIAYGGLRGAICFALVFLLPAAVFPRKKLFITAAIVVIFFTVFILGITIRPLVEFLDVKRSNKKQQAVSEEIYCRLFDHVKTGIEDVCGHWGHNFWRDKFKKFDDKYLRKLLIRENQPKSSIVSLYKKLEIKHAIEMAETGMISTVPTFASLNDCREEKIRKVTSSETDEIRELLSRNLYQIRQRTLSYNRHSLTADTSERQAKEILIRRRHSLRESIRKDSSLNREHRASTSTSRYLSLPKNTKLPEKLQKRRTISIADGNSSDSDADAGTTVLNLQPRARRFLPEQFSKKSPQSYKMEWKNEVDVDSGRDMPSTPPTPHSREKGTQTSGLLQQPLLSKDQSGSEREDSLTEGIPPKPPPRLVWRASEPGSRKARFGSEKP
Description: FLIPR assay of Na+/H+ exchange (BCECF fluorescence recovery) in human NHE2-SF transfected PS120 cells. The class given is cell-based. As for the experimental part: as §1, §2
5-(N,N-Hexamethylene)-amiloride ((hexa)-amiloride), amiloride, or a vehicle, was then added to each well and allowed to incubate for a minimum of 5 minutes prior to the initiation of intracellular acidification. The NH4Cl buffer was removed and the plates were placed on the FLIPR to establish a baseline fluorescence. A 10 mM hepes buffer, pH 7.4, containing the appropriate concentration of test compound or vehicle was added to each well of the plate. (This process initiates intracellular acidification and the quenching of BCECF-related fluorescence. The resultant activation of the Na^+/H^+ exchanger and the decrease in intracellular H^+ ions produces in gradual increase in dye fluorescence towards baseline.) Changes in fluorescence were measured by the FLIPR over a period of 7 min. Activity of the exchanger was calculated based on the percentage of fluorescence recovery as compared to control in the presence of varying concentrations of compounds (Table 2).

Where [1] appears, read: line #2, read-out: IC50 Values Determined By FLIPR, NHE2-SF line #2.
The mark [2] stands for this setting: line #, read-out: IC50 Values Determined By FLIPR, NHE2-SF line #.

For `NC(N)=NC(=O)c1nc(Cl)c(N2CCCCCC2)nc1N` [(hexa)-Amiloride, 5-(N,N-Hexamethylene)-amiloride], the IC50 – broadly, the midpoint of a concentration-inhibition curve – came out at 7480 nM on human NHE2-LF, 45 nM at human NHE2-SF (setting [1]) and 23 nM at human NHE2-SF (setting [2]).

On to `N=C(N)NC(=O)c1nc(Cl)c(N)nc1N` [Amiloride, amiloride], for which the IC50 on human NHE2-LF was 27000 nM; on human NHE2-SF (setting [1]), 1370 nM; at human NHE2-SF (setting [2]) it was 1700 nM.
